{"source": "patent US10849958B2", "about": "“Knee pain evaluation and management via WOMAC and KOOS systems” (ORTHOTROPHIX, INC., priority 2017, dated 2020)", "test_system": "subjects with bilateral patello-femoral knee osteoarthritis", "experiment": "Randomized double-blind placebo-controlled clinical study of TPX-100, safety and tolerability", "format": "in vivo, human", "key": {"[1]": {"settings": "intra-articular, four weekly doses, throughout the study period"}}, "note": "Ends that are not written are not given here.", "data": [{"substance": "TDLQERGDNDISPFSGDGQPFKD-NH2 [TPX-100]", "values": [{"measurement": "Dose-limiting toxicities", "setting": "Part A, 20, 50, 100 and 200 mg per intra-articular injection, four weekly injections", "value": "no dose-limiting toxicities"}, {"measurement": "Severe adverse events related to the drug treatment", "setting": "[1]", "value": "no severe adverse events likely or possibly related to the drug treatment"}, {"measurement": "Severity of treatment-related adverse events", "setting": "[1]", "value": "mild or moderate, transient"}, {"measurement": "Safety and tolerability of the treatments", "setting": "intra-articular, four weekly doses, throughout the study period (12 months)", "value": "safe and well tolerated"}]}]}
